# Tests used:
# retina (OIR model) = assay: Homing of FAM-peptides to retina and vitreous in oxygen-induced retinopathy (OIR) and to normal retina; format: in vivo, mouse (C57BL/6Rj); conditions: for peptide accumulation in the vitreous of the OIR retina relative to the control peptide / area of positive staining in OIR retina relative to a control peptide: OIR mice P17, 5 mg/kg, 120 min circulation, anti-FAM; for area of positive staining in OIR retina relative to a control peptide: N = 8; for homing signal in OIR retinas around retinal and preretinal blood vessels: OIR mice P17, 120 min, anti-FAM staining
# Method: Figure 3. Microdialysis-captured peptides home to skin wounds and penetrate blood–retina barrier in retinopathy. Systemically administered homing peptides CDD, CPK, and CYH accumulate in skin wounds and penetrate blood–retina barrier in retinopathy. Full-thickness wounds, 6 mm in diameter, in the back skin of 8-wk-old male mice were used. After 7 d, each peptide or PBS was injected into the tail vein. For retinopathy experiments, oxygen-induced retinopathy (OIR) was induced by placing mouse pups at day P7 in a hyperoxia chamber for 5 d. On P17, when the angiogenesis peaks in this OIR model, the peptides were injected into the tail vein. The peptides circulated for 150 min (wounds) and 120 min (OIR) before the vasculature was thoroughly perfused. The skin wounds and eyeballs were fixed, and histological samples stained with anti-FAM and hematoxylin. Peptide homing was quantified with the automated image analysis system. (A) Microdialysis-identified peptides home to skin wounds. […] (D) All three microdialysis-identified peptides also accumulate substantially in the vitreous in the OIR model. *P < 0.05, **P < 0.01, ***< 0.001. Each datapoint represents an individual wound, retina, or vitreous. N = 3 for skin wound, and N = 6 and N = 8 for normal and OIR retinas.
# We wanted to explore whether the new wound-penetrating peptides externalize and penetrate tissues that have an additional barrier around the blood vessels. The retinal blood vessels have an additional element, blood–retina barrier (BRB) that hinders the access of systemically administered drugs to retina ([Lahdenranta et al, 2007]; [Sweeney et al, 2019]; [Vähätupa, et al, 2020b]). Thus, we explored the homing of the new peptides to the normal retina and to the retinal angiogenesis in the oxygen-induced retinopathy (OIR) model ([Vähätupa, et al, 2020b]). […] Next, we quantified the area of positive staining in the retina. There was ninefold more of CYH (P < 0.01) and 120-fold and 88-fold more of CDD and CPK than of a control peptide in OIR retinas (P < 0.0001 for the CDD and CPK peptides) (Fig 3C).
# Figure 4. Microdialysis-captured peptides home and penetrate to retina in retinopathy. The CDD, CPK, and CYH peptides accumulate in the retina and vitreous in oxygen-induced retinopathy (OIR). The OIR model was carried out as described previously ([Vähätupa et al, 2020b]). At P17, the peptides were injected into the tail vein and circulated for 120 min before the vasculature was thoroughly perfused. The eyeballs were fixed and histological sections stained with anti-FAM antibody and hematoxylin. (A) None of the tested peptides homed to the normal retina after the systemic administration at P17. (B) Three microdialysis-identified homing peptides homed and penetrated into the retina in OIR at the peak of angiogenesis at P17. The peptides also accumulate in the vitreous in the OIR model. (A, B, C) High-magnification images of peptide accumulation in OIR retina. The scale bar is 100 μm for (A, B) and 20 μm for (C). Images are representative of N = 6 and N = 8 for normal and OIR retinas.
# WT C57BL/6Rj mice were used for the OIR experiments ([Vähätupa, et al, 2020a]). The OIR model was performed as described in detail previously ([Vähätupa, et al, 2020a]; [De Rossi et al, 2021]). Briefly, to induce retinopathy in the retina, the pups and their nursing mothers were exposed to 75% oxygen in a custom-made chamber (ProOx P110 oxygen controller; BioSpherix Ltd.) at postnatal day 7 (P7) for 5 d until P12 when they were returned to normal room air. The homing experiments were performed at P17 (late hypoxic phase and the peak of neovascularization) ([Vähätupa et al, 2021]). Control animals were housed under normal room air conditions, and retinas were harvested on the corresponding day (P17). All retina experiments were conducted under the ARVO Statement for the Use of Animals in Ophthalmic and Vision Research guidelines. […]
# CHO-K cells = assay: Peptide internalization in vitro, confocal imaging, CHO-K cells; format: cell-based, Chinese hamster; conditions: FAM-labeled peptide 20 μM, 3 h, 37°C, confocal fluorescence imaging, representative of three experiments
# Method: Figure 1. Microdialysis-captured peptides penetrate the cell membrane. […] CHO-K cells were grown on chamber slides. […] The scale bar is 20 μm. Images are representative of three individual experiments.
# Plain growth medium was used as a negative control.
Sequence,peptide accumulation in the vitreous of the OIR retina relative to the control peptide (retina (OIR model)) [×],area of positive staining in OIR retina relative to a control peptide (retina (OIR model)),homing signal in OIR retinas around retinal and preretinal blood vessels (retina (OIR model)),cellular uptake in CHO-K cells (CHO-K cells)
CDDYQQISC [FAM-labeled synthetic peptide …],67.2,120 fold,strong homing signal,accumulate in the CHO-K cells
CPKKHHLDC [FAM-labeled synthetic peptide …],80.3,88 fold,strong homing signal,accumulate in the CHO-K cells
CYHDTYPNC [FAM-labeled synthetic peptide …],16.9,ninefold,strong homing signal,accumulate in the CHO-K cells

# — paper PMC11814485, “Screening of homing and tissue-penetrating peptides by microdialysis and in vivo phage display” (Life Science Alliance, 2025)
